This data set deals with GENE-TOX genotoxicity assays, various organisms and cells. The data set can be described thus: GENE-TOX mutagenicity studies. Particulars: for call: Assay Type: In vivo carcinogenicity studies.
The mark [1] stands for this setting: Species/Cell Type: Bacillus subtilis (H17 vs M45), Assay Type: Rec-assay, spot test, DNA effects (bacterial DNA repair), Assay Code: REW+, Evaluation Type: Evaluation A (Pre-1980).
[2] abbreviates: Species/Cell Type: Escherichia coli WP2, Assay Type: Tryptophan reverse gene mutation, Assay Code: WP2+, Evaluation Type: Evaluation A (Pre-1980).
[3] abbreviates: Species/Cell Type: Nonhuman, Assay Code: CCG+, Evaluation Type: Evaluation A (Pre-1980).
Where [4] appears, read: Species/Cell Type: Saccharomyces cerevisiae, Assay Type: Mitotic recombination or gene conversion, Assay Code: YEC+, Evaluation Type: Evaluation A (Pre-1980).
[5] abbreviates: Species/Cell Type: Salmonella typhimurium (one or more of the five standard strains: TA98, TA100, TA1535, TA1537, and TA1538), Assay Type: Histidine reverse gene mutation, Ames assay, Assay Code: SAL+, Evaluation Type: Evaluation A (Pre-1980).
The mark [6] stands for this setting: Species/Cell Type: Drosophila melanogaster, Assay Type: Sex-linked recessive lethal gene mutation, Assay Code: SRL+, Evaluation Type: Evaluation A (Pre-1980).
Where [7] appears, read: Species/Cell Type: Mammalian polychromatic erythrocytes, Assay Type: Micronucleus test, chromosome aberrations, Assay Code: MNTT, Evaluation Type: Evaluation B (Post-1980).
Setting [8] is: Species/Cell Type: Salmonella typhimurium (one or more of the five standard strains: TA98, TA100, TA1535, TA1537, and TA1538), Assay Type: Histidine reverse gene mutation, Ames assay, Assay Code: SALT, Evaluation Type: Evaluation A (Pre-1980).
[9] abbreviates: Species/Cell Type: Bacillus subtilis (H17 vs M45T), Assay Type: Rec-assay, spot test, DNA effects (bacterial DNA repair), Assay Code: REX+, Evaluation Type: Evaluation A (Pre-1980).

Molecules are shown by their SMILES. Activity calls are given as the source filed them. No rule for the calls is given here.

As for `O=CNc1nc(-c2ccc([N+](=O)[O-])o2)cs1`, the mutagenic call reads like this: under setting [1], “active; positive”; under setting [2], “active; positive”; (Species/Cell Type: Escherichia coli WP2 UVRA, Assay Type: Tryptophan reverse gene mutation, Assay Code: WPU+D, Dose Response: With dose response, Evaluation Type: Evaluation A (Pre-1980)) “active; positive”; (Species/Cell Type: Escherichia coli polA (W3119 vs P3478), Assay Type: Rec-assay, DNA effects (bacterial DNA repair), Assay Code: RE1+, Evaluation Type: Evaluation A (Pre-1980)) “active; positive”; (Species/Cell Type: Fischer rat embryo (RLV/1706) cells, Assay Type: Cell transformation, viral enhanced, Assay Code: CTR+, Evaluation Type: Evaluation A (Pre-1980)) “active; positive”; (Species/Cell Type: Mouse, Sex: Male, Assay Type: Sperm morphology, Assay Code: SPIT, Evaluation Type: Evaluation A (Pre-1980)) “no conclusion”. Also, the mutagenic call (Species/Cell Type: Neurospora crassa, Assay Type: Forward gene mutation, Assay Code: NEF+, Evaluation Type: Evaluation A (Pre-1980)) is “active; positive”; the mutagenic call (Species/Cell Type: Neurospora crassa, Assay Type: Reverse gene mutation, Assay Code: NER+, Evaluation Type: Evaluation A (Pre-1980)) is “active; positive”; the mutagenic call (Species/Cell Type: Nonhuman, Assay Type: Sister-chromatid exchange (SCE) in vitro, Assay Code: SC2+D, Dose Response: With dose response, Evaluation Type: Evaluation B (Post-1980)) was “active; positive”; the mutagenic call under setting [4] is “active; positive”; the mutagenic call (Species/Cell Type: Saccharomyces cerevisiae, Assay Type: Mitotic recombination or gene conversion, Assay Code: YEH+, Evaluation Type: Evaluation A (Pre-1980)) was “active; positive”; the mutagenic call under setting [5] is “active; positive”. The mutagenic call is, setting by setting: (Species/Cell Type: Salmonella typhimurium and Saccharomyces cerevisiae, Assay Type: Forward and reverse gene mutation, mitotic recombination and gene conversion, DNA effects, body fluid assay, Assay Code: BFG+, Evaluation Type: Evaluation A (Pre-1980)) “active; positive”; (Species/Cell Type: Salmonella typhimurium, Saccharomyces cerevisiae, Assay Type: Forward and reverse gene mutation, mitotic recombination and gene conversion, DNA effects, host-mediated assay, Assay Code: HM3+, Evaluation Type: Evaluation A (Pre-1980)) “active; positive”; (Species/Cell Type: Syrian hamster embryo (SHE) cells, Assay Type: Cell transformation, clonal assay, Assay Code: CTC+, Evaluation Type: Evaluation A (Pre-1980)) “active; positive”. Also, the call under setting [3] was “active; positive”.
`CCCCCC(=O)N(C)N=O`: the mutagenic call under setting [4] is “active; positive”.
For the molecule `O=[N+]([O-])c1ccc(/C=C/c2cccc(CO)n2)o1`, the mutagenic call (Species/Cell Type: Human diploid fibroblasts, Assay Type: Unscheduled DNA synthesis (UDS) in vitro, DNA effects, Assay Code: UDH+, Evaluation Type: Evaluation A (Pre-1980)) was “active; positive”.
As for `CC(CNC(=O)N(CCCl)N=O)NC(=O)N(CCCl)N=O` (stereo unspecified), the mutagenic call under setting [6] is “active; positive” and the mutagenic call under setting [4] is “active; positive”.
Turning to `O=NN(CCCl)C(=O)NCCCO`, the mutagenic call is, setting by setting: under setting [6], “active; positive”; under setting [4], “active; positive”.
With `C1=Cc2cc3ccc4cccc5ccc(c2CC1)c3c45`, under “Species/Cell Type: Mouse prostate cells, Assay Type: Cell transformation, Assay Code: CTM-, Evaluation Type: Evaluation A (Pre-1980)”, the mutagenic call was “inactive; negative”.
On to `O=S1OCC2C(CO1)C1(Cl)C(Cl)=C(Cl)C2(Cl)C1(Cl)Cl` (stereo unspecified), for which the mutagenic call under setting [7] was “no conclusion”.
For `CCOc1ccc(CC(=O)OC)cc1CSC(=N)N`, under “Species/Cell Type: Saccharomyces cerevisiae, Assay Type: Reverse gene mutation, Assay Code: YERT, Evaluation Type: Evaluation A (Pre-1980)”, the mutagenic call was “no conclusion”.
On to `CO[C@@H]1C[C@](C)(O)Cc2cc3c(c(O)c21)C(=O)c1c(O)cc2c(c1C3=O)O[C@@H]1O[C@@]2(C)[C@H](O)[C@@H](N(C)C)[C@@H]1O`, for which the mutagenic call (Species/Cell Type: Mammalian polychromatic erythrocytes, Assay Type: Micronucleus test, chromosome aberrations, Assay Code: MNT+, Evaluation Type: Evaluation B (Post-1980)) is “active; positive” and the mutagenic call (Species/Cell Type: Nonhuman, Assay Type: Sister-chromatid exchange (SCE) in vitro, Assay Code: SC2+, Evaluation Type: Evaluation B (Post-1980)) is “active; positive”.
As for `COc1cc2c[n+](C)c3c4cc(OC)c(OC)cc4ccc3c2cc1OC`, the mutagenic call under setting [8] is listed as “no conclusion”.
On to `c1ccc2c(c1)Cc1ccccc1-2`, for which the mutagenic call runs as follows: (Species/Cell Type: Nonhuman, Assay Type: Sister-chromatid exchange (SCE) in vivo, Assay Code: SC3T, Evaluation Type: Evaluation B (Post-1980)) “no conclusion”; (Species/Cell Type: Salmonella typhimurium (one or more of the five standard strains: TA98, TA100, TA1535, TA1537, and TA1538), Assay Type: Histidine reverse gene mutation, Ames assay, Assay Code: SAL-, Evaluation Type: Evaluation A (Pre-1980)) “inactive; negative”.
As to `C1CCNCC1`, the mutagenic call (Species/Cell Type: Salmonella typhimurium, Assay Type: Forward and reverse gene mutation, host-mediated assay, Assay Code: HMA-, Evaluation Type: Evaluation A (Pre-1980)) was “inactive; negative”.
In the case of `Oc1ccc2ccc3cc4ccccc4c4ccc1c2c34`, the mutagenic call reads like this: (Species/Cell Type: Chinese hamster lung (V79) cells, Assay Type: Forward gene mutation at the HPRT or ouabain locus, Assay Code: V79+/-*, Activation: With metabolic activation, Evaluation Type: Evaluation A (Pre-1980)) “inactive; positive without activation, negative with activation”; under setting [5], “active; positive”. In addition, under “Species/Cell Type: Nonhuman, Assay Code: CCGT, Evaluation Type: Evaluation A (Pre-1980)”, the call is on record as “no conclusion”.
`Cl[Te](Cl)(Cl)Cl`: the mutagenic call under setting [1] is “active; positive”.
Take `O=[N+]([O-])c1ccc(N=Nc2ccccc2)cc1`: the mutagenic call under setting [5] was “active; positive”.
Take `CCOP(=O)(N=C1SCC(C)S1)OCC` (stereo unspecified): where the note is “Species/Cell Type: Hordeum vulgare (barley), Assay Type: Chromosome aberrations, Assay Code: HOC+D, Dose Response: With dose response, Evaluation Type: Evaluation A (Pre-1980)”, the mutagenic call was “active; positive”.
`C[C@]12CC[C@H]3[C@@H](CCC4=CC(=O)CC[C@@]43C)[C@@H]1CC[C@@H]2O`: the mutagenic call was “active; positive” (Species/Cell Type: Human, Sex: Male, Assay Type: Sperm morphology, Assay Code: SPH+, Evaluation Type: Evaluation A (Pre-1980)) and “inactive; negative” (Species/Cell Type: Mouse, Sex: Male, Assay Type: Sperm morphology, Assay Code: SPI-, Evaluation Type: Evaluation A (Pre-1980)). The call under setting [3] is “active; positive”.
Regarding `Cc1ccc2cc3c(ccc4cc(C)ccc43)cc2c1`, the mutagenic call (Species/Cell Type: Drosophila melanogaster, Assay Type: Sex-linked recessive lethal gene mutation, Assay Code: SRLT, Evaluation Type: Evaluation A (Pre-1980)) is “no conclusion”.
As to `COc1cc2c(c3oc(=O)c4c(c13)CCC4=O)[C@@H]1C[C@H](O)O[C@@H]1O2`, the mutagenic call under setting [8] was “no conclusion”.
Still for that read-out and setting: as for `CC(=O)Nc1ccc(C(O)C(O)c2ccccc2)cc1` (stereo unspecified), the entry is “no conclusion”.
For the molecule `Cc1cccc2ccc3c4ccccc4ccc3c12`, the mutagenic call (Species/Cell Type: Salmonella typhimurium (one or more of the five standard strains: TA98, TA100, TA1535, TA1537, and TA1538), Assay Type: Histidine reverse gene mutation, Ames assay, Assay Code: SAL+*, Activation: With metabolic activation, Evaluation Type: Evaluation A (Pre-1980)) is “active; positive”.
With `C=C(C)[C@H]1O[C@H]2CC[C@@]3(C)[C@@](O)(CC[C@H]4[C@@H]5OC(C)(C)[C@H]6C[C@@H]7C(=C)Cc8c(Cl)cc9[nH]c(c5c9c8[C@@]76O)[C@@]43C)[C@]23O[C@@H]3[C@H]1O`, the mutagenic call was “inactive; negative” (Species/Cell Type: Saccharomyces cerevisiae, Assay Type: Mitotic recombination or gene conversion, Assay Code: YEH-, Evaluation Type: Evaluation A (Pre-1980)) and “no conclusion” under setting [8].
Take `Cc1cc(C)cc(OC(=O)N(C)N=O)c1`: the mutagenic call was “active; positive” under setting [9] and “active; positive” under setting [2].
For the molecule `Cc1ccc(OC(=O)N(C)N=O)cc1C`, the mutagenic call by setting is: under setting [9], “active; positive”; under setting [2], “active; positive”.
As to `Nc1cc(Cl)c(Cl)cc1N`, the mutagenic call under setting [7] is “no conclusion”.
